Reference: patent US7419785B2, “Methods and compositions in breast cancer diagnosis and therapeutics” (Baylor College of Medicine, priority 2001, dated 2008)

What was measured:
breast cancer = conditions: patients with a history of ADH receiving tamoxifen (Fisher et al., 1998); cited from earlier work
[1] = system: WT ERα and the A908G ERα mutation; test: Saturation binding Scatchard analyses; set-up: species or system human
[2] = system: MCF-7 cells stably transfected with the mutant ER (A908G, Lys303Arg); test: Cell growth of MCF-7 clones stably transfected with the mutant ER in response to estradiol; assay type: cell-based, human; conditions: cells expressing the ERα mutant, calculated from the growth curves
Method: (§1) The medium was replaced every 48 h and the cells were harvested and counted on days 2, 4, 6, and 8, respectively. Cell number X 10^4 is shown.
(§2) The WT ER expression construct was prepared in the pcDNAI vector as described previously (Fuqua et al., 1995). Site directed mutagenesis of this construct was then utilized to generate the A908G transition and the entire coding sequence of ER was verified by dideoxysequence analysis in this clone. The generation of stable transfectants was performed as described by Oesterreich et al. (1993) using cotransfection with the G418-selectable expression vector pSVneo at a ration of 25:1 with the ER plasmids into MCF-7 breast cancer cells. […] Two to three-fold elevated levels of total ER protein were detected in the two WT ER and the three Var clones. […] Furthermore, the relative levels of WT or Var sequences were determined by genomic sequence analysis as described above; the ER Var transfectants contained both WT nucleotide (A) and Var nucleotide (G) sequence in approximately equal ratios on the sequencing gels.
(§3) The proliferative response to hormones in breast cancer cell transfectants containing the mutation was tested to determine if this ER mutation confers a selective advantage. […] This cell line was chosen because it was determined that WT ERα was expressed along with the mutant in the original 2/4 typical hyperplastic lesions which were examined. […]

[3] = system: MCF-7 breast cancer cells; test: Cell growth of untransfected parental MCF-7 cells in response to estradiol; assay type: cell-based, human; conditions: calculated from the growth curves
Method: as §1, §2, §3

CC/C(=C(\c1ccccc1)c1ccc(OCCN(C)C)cc1)c1ccccc1 [tamoxifen]
decrease in breast cancer incidence (breast cancer): 85% | difference in affinity between WT ERα and the A908G ERα mutation [1]: nor were there differences in affinity

C[C@]12CC[C@@H]3c4ccc(O)cc4CC[C@H]3[C@@H]1CC[C@@H]2O [estradiol]
doubling time ([2]; 10^−9 M of hormone): 1.3 days | doubling time ([2]; 10^−12 M of hormone): 1.3 days | doubling time ([3]; MCF-7 cells in 10^−9 M estradiol): 1.3 days | doubling time ([3]; MCF-7 cells in 10^−12 M estradiol): 2.2 days
